According to patent US20200360332A1, “COMPOUND FOR USE IN THE INCREASING OF MENTAL CAPACITY” (LEIBNIZ-INSTITUT FUER NEUROBIOLOGIE (LIN) STIFTUNG DES …, priority 2017, published 2020):

Tests used:
[1] = tested on: Drosophila melanogaster larvae; experiment: Learning experiment E (scent/fructose reward) with Drosophila melanogaster larvae raised on feed mash containing the compound; format: in vivo; settings: for improvement in learning capability compared with FSE-20 (summary statement): Drosophila larvae, effect of FSE-20>FSE-16>>FSE-8; for learning and memory capability P vs control K (Example 2): 7.1×10^−7 M (700 nM) final concentration in feed mash
Description: Depicted in FIG. 1A is an overview of a learning experiment E with Drosophila melanogaster larvae. […] One group represents the control group K, which was raised with standard feed mash, and the three other groups were each raised with different concentrations of FSE-20 (7.1×10^−8, 7.1×10^−7, and 7.1×10^−6[M] FSE-20) in the feed mash. After 5 days (arrow with “5d”), the learning experiment E was carried out. In the learning experiment E, the animals were each subjected to one of two inverse training regimens A and then subjected to a test B. The first group I was presented in training A with a first scent with the feed reward (fructose), while a second scent was presented alone (first scent+/second scent). In FIG. 1A, the first scent is depicted as a white square and the second scent as a black square. […] The second group II was trained inversely (first scent/second scent+). In test B of the learning experiment E, it was subsequently examined whether the larvae of the two groups I, II prefer the first scent or the second scent in a selection situation and thus their learning and memory capability (performance index) P was determined. Shown in FIG. 2A is an overview with the compounds used in this example as additions to the feed mash. One group of the Drosophila melanogaster larvae was the control group K, which was raised with standard feed mash. Furthermore, one group was raised with FSE-20 in a concentration of 7.1×10^−7 M in the feed mash. The other groups were raised with a concentration of 7.1×10^−7 M of the different FSE-20 derivatives in the feed mash. These FSE-20 derivatives comprise FSE-8, FSE-12, FSE-16, 4OH-ZSE-20, and DH-FSE-20. After five days (arrow with “5d”), the Drosophila melanogaster larvae were tested in the learning experiment E, as described in Example 1.

mice = experiment: Learning experiment E in mice (conditioned fear, freezing) after intraperitoneal injection; format: in vivo; settings: 6 mg/kg i.p. prior to training
Description: In order to determine the effect of FSE-20 on the learning and memory capability P in 3- to 4-month-old mice, the animals underwent intraperitoneal injection with an FSE-20 solution (6 mg/kg body weight) prior to the training A. In the learning experiment E on the next day, the animals were placed in a specific environment during the training A, while the mice were subjected at the same time to an aversive electrical stimulus (lightning symbol). Subsequently, in the first test B-1 one day later (1 d), the nonspecific fear reaction (freezing) F was measured in a neutral environment, that is, in an environment that was new for the animals. In the second test B-2, two hours (2 h) after the first test B-1, the fear reaction in the environment was measured, in that the animals were presented with the electrical stimulus during the training A (conditioned environment).
Shown in FIG. 4B is a graphic illustration that summarizes the results of the learning experiment E on mice. […] The first span of time of the second test comprises the 1st-5th minute and the second span of time comprises the 6th-10th minute. The result of the first span of time is represented as black bars and the result of the second span of time is represented as white bars with black longitudinal stripes.

[2] = tested on: older Drosophila melanogaster flies; experiment: Learning experiment E with mature, older Drosophila melanogaster flies fed FSE-20; format: in vivo
Description: In this experiment, the flies were divided into two groups, a control group K, which was fed with standard feed, and a test group, for which FSE-20 was added to the feed. The concentration of FSE-20in the feed was 7.1×10^−7 M. The flies were tested in a learning experiment E, corresponding to the principle of Example 1, 15 days (arrow with “15d”) after the adult animals had hatched.

[3] = tested on: hippocampal CA1 mouse cells; experiment: Ex vivo patch-clamp electrophysiological recordings on hippocampal CA1 pyramidal cells; format: cell-based, mice; settings: for number of action potentials vs control K: current intensities of 40 to 440 pA
Description: The patch-clamp method was carried out on whole CA1 pyramidal cells from “acute” (freshly prepared) hippocampus slices of four-to-six-week-old male mice in order to measure the effects of FSE-20 on neuronal excitability.
Shown are the action potentials of the control K as well as those of the cells treated with FSE-20.
Depicted in FIG. 5B is a graphic illustration in which the number of action potentials is shown in relation to the injected current intensity (pA) of the differently treated cells and of the control group K.

## CCCCCCCCCCCCCCCCCCCCOC(=O)CCc1ccc(O)c(OC)c1 [DH-FSE-20, icosyl 3-(4-hydroxy-3-methoxyphenyl)propanoate]
[1]
  improvement in learning capability compared with FSE-20 (summary statement): less pronounced
[1]; larvae, 5 days
  learning and memory capability P vs control K (Example 2): increases learning and memory

## CCCCCCCCCCCCCCCCCCCCOC(=O)/C=C/c1ccc(O)cc1 [4OH-ZSE-20, icosyl (2E)-3-(4-hydroxyphenyl)prop-2-enoate]
[1]
  improvement in learning capability compared with FSE-20 (summary statement): weaker, but still marked activity
[1]; larvae, 5 days
  learning and memory capability P vs control K (Example 2): slight increase

## CCCCCCCCCCCCOC(=O)/C=C/c1ccc(O)c(OC)c1 [FSE-12, dodecyl (2E)-3-(4-hydroxy-3-methoxyphenyl)prop-2-enoate]
[1]; larvae, 5 days
  learning and memory capability P vs control K (Example 2): slight increase

## CCCCCCCCOC(=O)/C=C/c1ccc(O)c(OC)c1 [FSE-8, octyl (2E)-3-(4-hydroxy-3-methoxyphenyl)prop-2-enoate]
[1]
  improvement in learning capability compared with FSE-20 (summary statement): less pronounced
[1]; larvae, 5 days
  learning and memory capability P vs control K (Example 2): increases the learning and memory capability P

## CCCCCCCCCCCCCCCCCCCCOC(=O)/C=C/c1ccc(O)c(OC)c1 [FSE-20, icosyl (2E)-3-(4-hydroxy-3-methoxyphenyl)prop-2-enoate]
mice; mice 3-4 months, second test B-2, conditioned environment
  fear behavior (freezing) F in second half (6th-10th minute) compared with first half (1st-5th minute): just as strongly pronounced
mice; mice
  memory stability vs control: more stable memory over time
[2]; 7.1×10^−7 M in feed, tested 15 days after hatching
  improvement of learning and memory capability P in older animals: approximately 50%
[2]; FSE-20 in feed
  learning capability of older flies (summary statement): doubled
[3]; 1 μM
  number of action potentials vs control K: increased significantly
[3]; 4 μM
  number of action potentials vs control K: increased significantly
[3]; ex vivo, summary statement
  excitability of pyramidal CA1 hippocampus cells: increases in a dose-dependent manner
[1]; added to feed of larvae
  learning and memory capability of larvae (summary statement): significantly in a dose-dependent manner
[1]; in feed mash
  concentration at which an effect is seen: 700 nM
[1]; larvae, 700 nM in feed mash, 5 days
  improvement of learning and memory capability P: approximately 50%
[1]; larvae, 5 days
  learning and memory capability P vs control K (Example 2): marked increase
[1]; larvae, 7.1×10^−8, 7.1×10^−7 or 7.1×10^−6 M in feed mash, 5 days
  learning and memory capability P (performance index) vs control K: increased
[1]; larvae, very high concentrations starting at 7 μM in feed mash, 5 days
  learning and memory capability P: declines once again
[1]; larvae, very low concentration, 70 nM in feed mash, 5 days
  learning and memory capability P: increase in learning tendency

## CCCCCCCCCCCCCCCCOC(=O)/C=C/c1ccc(O)c(OC)c1 [FSE-16, hexadecyl (2E)-3-(4-hydroxy-3-methoxyphenyl)prop-2-enoate]
[1]
  improvement in learning capability compared with FSE-20 (summary statement): less pronounced
[1]; larvae, 5 days
  learning and memory capability P vs control K (Example 2): increases learning
